Experimental data from patent publication EP1979351B1, “6-PHENYL-1H-IMIDAZO[4, 5-C]PYRIDINE-4-CARBONITRILE DERIVATIVES AS CATHEPSIN K AND S INHIBITORS” (N.V. Organon, priority 2006, dated 2007).

Biological target: recombinant human Cathepsin S (Homo sapiens, UniProt P25774)
Assay: Cathepsin S assay procedure: inhibition of enzyme activity, fluorescence of liberated aminomethylcoumarin
Format: biochemical
Settings: activated recombinant human cathepsin S; substrate Z-Val-Val-Arg-AMC; sodium acetate pH5.5; fluorescence at 20 minutes; dose response curve; read-out: pIC50 (negative logarithm of the IC50 concentration) for inhibition of human cathepsin S (converted)
Description: 25µl of a 2mg/l solution of activated recombinant human cathepsin S, in assay buffer, is then added to the well, yielding a final inhibitor concentration of 10µM.
Enzyme activity is determined by measuring the fluorescence of the liberated aminomethylcoumarin at […] using 390nm excitation, at 20 minutes. Percentage enzyme activity is calculated by comparison of this activity to that of a solution containing no inhibitor.

Sequence of recombinant human Cathepsin S (P25774 115-331): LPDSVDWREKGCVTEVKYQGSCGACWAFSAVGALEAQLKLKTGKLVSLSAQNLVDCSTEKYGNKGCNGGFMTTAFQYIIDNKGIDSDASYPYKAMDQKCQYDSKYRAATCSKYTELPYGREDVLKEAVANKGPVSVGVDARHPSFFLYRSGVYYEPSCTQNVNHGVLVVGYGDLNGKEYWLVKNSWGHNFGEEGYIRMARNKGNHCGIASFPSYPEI

Row | SMILES | IC50
1 | CCOc1ccc(-c2cc3c(ncn3CCCC(=O)O)c(C#N)n2)cc1C(F)(F)F [Example 4, [4-Cyano-6-(4-ethoxy-3-trifluoromethyl-phenyl)-imidazo[4,5-c]pyridin-1-yl]-butyric acid] | < 100 nM
2 | CCOc1ccc(-c2cc3[nH]c(CN4CCN(CCO)CC4)nc3c(C#N)n2)cc1C(F)(F)F [Example 13l, 6-(4-Ethoxy-3-trifluoromethyl-phenyl)-2-[4-(2-hydroxy-ethyl)-piperazin-1-ylmethyl]-1H-imidazo[4,5-c]pyridine-4-carbonitrile] | < 100 nM
